The source of these data is PMC6742966, “The Synergism of the Small Molecule ENOblock and Fluconazole Against Fluconazole-Resistant Candida albicans” (Frontiers in Microbiology, 2019).

The Kd is the free concentration of one partner at which half of the binding sites on the other are occupied at equilibrium, for simple one-to-one binding. A higher Kd goes with lower affinity.

This test has as its target T1, C. albicans enolase 1 (rCaEno1) (Candida albicans, UniProt P30575).
T1 construct: gene ENO1; full-length, C-terminal His6 tag
Kind of test: SPR (Biacore T200, immobilized rCaEno1, steady-state affinity); also inhibits transglutaminase activity of purified rCaEno1, IC50 about […], with no significant effect on enolase activity. Type of test: binding.

T1 sequence (P30575 whole entry): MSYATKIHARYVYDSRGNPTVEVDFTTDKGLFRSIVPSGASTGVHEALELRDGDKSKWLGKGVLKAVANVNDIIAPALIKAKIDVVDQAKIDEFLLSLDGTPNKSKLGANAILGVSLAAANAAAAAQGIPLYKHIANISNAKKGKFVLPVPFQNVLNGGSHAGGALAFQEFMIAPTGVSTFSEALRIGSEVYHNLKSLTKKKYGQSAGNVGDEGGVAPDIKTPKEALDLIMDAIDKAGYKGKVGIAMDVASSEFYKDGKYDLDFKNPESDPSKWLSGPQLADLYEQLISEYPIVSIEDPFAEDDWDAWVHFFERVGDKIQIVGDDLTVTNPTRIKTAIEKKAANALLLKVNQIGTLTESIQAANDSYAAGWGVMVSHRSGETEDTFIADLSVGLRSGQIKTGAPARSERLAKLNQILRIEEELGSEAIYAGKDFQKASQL

In turn, `NCCOCCOCCNC(=O)Cc1ccc(Nc2nc(NCc3ccc(F)cc3)nc(NCC3CCCCC3)n2)cc1` [ENOblock] yielded a Kd of approximately 300 nM.
